From patent publication US7884120B2, “2,4,5-trisubstituted imidazoles and their use as anti-microbial agents” (Lorus Therapeutics Inc., priority 2002, dated 2011) come the findings set out here.

Assay [1] has as its system Methicillin-Resistant Staphylococcus aureus (MRSA), CMRSA-1B. Description: MIC by sequential macrodilution (tube) broth method against MRSA. Format: cell-based. On the set-up: key: (+): Positive visual bacterial growth; (−): Negative visual bacterial growth. Particulars: 37° C. overnight. The procedure: (Nat. Committee for Clinical Laboratory Standards. Document M7-A5 2000, 20; 1-25). Bacterial suspensions containing 5×10^5 colony-forming units (CFU) were incubated with serial two-fold dilutions of each drug at 37° C. overnight, and growth was monitored visually. The range of MIC values among the triaryl-imidazole derivatives was 12.5-50 μg/ml.

The test system of assay [2] is multi-drug resistant Staphylococcus aureus (CMRSA-1B). Description: Bactericidal effect against MRSA (CFU plating on TSA). It is filed as cell-based. As to conditions: overnight with compound, plated on TSA, CFU count (FIG. 1). The procedure:
Serial dilutions of liquid cultures were incubated with the compounds at 37° C. overnight and then plated on Tryptic Soy Agar (TSA) plates. After incubation for 17 hours at 37° C., the number of live bacteria was calculated from the number of colonies grown per milliliter of culture and expressed as colony-forming units (CFU).

The test system of assay [3] is MRSA-1B387. Description: In vivo inhibition of MRSA, acute infection in immunosuppressed CB17-SCID mice. On the set-up: species or system Staphylococcus aureus. Particulars: 5×10^6 MRSA-1B387 in 5% mucin, 50 mg/kg I.P. immediately and 3 hours after inoculation. The procedure:
Triaryl-imidazole compounds were tested in vivo for antibacterial activity against MRSA in a model of acute infection using immunosuppressed mice. Suspensions of 400 μL containing 5×10^6 MRSA-1B387 bacteria in 5% mucin were injected into groups of 5-10 female, 8-14 weeks CB17-SCID mice. Under these conditions bacterial infection produced 80-100% lethality in less than 48 hours. Each group of inoculated mice was treated with 50 mg/kg of the respective compound intraperitoneally (I.P.) immediately and 3 hours after bacterial inoculation.

In the case of `O=C(O)c1ccc(-c2nc(-c3ccc(Sc4ccccc4)cc3)c(-c3ccccc3)[nH]2)cc1` [Compound 1], the visual bacterial growth entry is recorded as “+” in assay [1] (Conc. 3.12 μg/ml); “+” in assay [1] (Conc. 6.25 μg/ml); “−” in assay [1] (Conc. 12.50 μg/ml); “−” in assay [1] (Conc. 25.00 μg/ml); “−” in assay [1] (Conc. 50.00 μg/ml); “−” in assay [1] (Conc. 100.00 μg/ml). In addition, the “bactericidal or bacteriostatic effect at the corresponding MIC” value in assay [2] was “bactericidal effect”. The “Survival (%)” value in assay [3] turned out to be 40%.
For `O=C(O)c1ccc(-c2nc(-c3ccc(Br)cc3)c(-c3ccccc3Br)[nH]2)cc1` [Compound 4], the visual bacterial growth result in assay [1] (Conc. 3.12 μg/ml) is “+”; in assay [1] (Conc. 6.25 μg/ml) it was “+”; in assay [1] (Conc. 12.50 μg/ml) it was “+”; in assay [1] (Conc. 25.00 μg/ml), “+”; in assay [1] (Conc. 50.00 μg/ml) it was “−”; in assay [1] (Conc. 100.00 μg/ml), “−”. Besides, the “bactericidal or bacteriostatic effect at the corresponding MIC” value in assay [2] is given as “bacteriostatic effect”. In addition, in assay [3] (50 mg/kg), the “Survival (%)” value is 50%.
